Test results reported in paper PMC6420960 (Science translational medicine, 2015).
“Also recorded” adds a separate entry of the source. Structures can show the parent of a compound that is named as a salt. Where two headings read alike, the source gives them in different places.

Columns and labels:
HCV-Luc [1] = experiment: HCV-Luc infection assay; conditions: for selectivity ratio: human; for EC90: read-out: HCV-Luc EC90; for anti-HCV activity (in words): NPC screen / confirmation assays
H1-histamine receptor = H1-histamine receptor (Homo sapiens, UniProt P35367); experiment: β-arrestin H1-histamine receptor assay; type: cell-based
Chain of H1-histamine receptor (P35367 whole entry): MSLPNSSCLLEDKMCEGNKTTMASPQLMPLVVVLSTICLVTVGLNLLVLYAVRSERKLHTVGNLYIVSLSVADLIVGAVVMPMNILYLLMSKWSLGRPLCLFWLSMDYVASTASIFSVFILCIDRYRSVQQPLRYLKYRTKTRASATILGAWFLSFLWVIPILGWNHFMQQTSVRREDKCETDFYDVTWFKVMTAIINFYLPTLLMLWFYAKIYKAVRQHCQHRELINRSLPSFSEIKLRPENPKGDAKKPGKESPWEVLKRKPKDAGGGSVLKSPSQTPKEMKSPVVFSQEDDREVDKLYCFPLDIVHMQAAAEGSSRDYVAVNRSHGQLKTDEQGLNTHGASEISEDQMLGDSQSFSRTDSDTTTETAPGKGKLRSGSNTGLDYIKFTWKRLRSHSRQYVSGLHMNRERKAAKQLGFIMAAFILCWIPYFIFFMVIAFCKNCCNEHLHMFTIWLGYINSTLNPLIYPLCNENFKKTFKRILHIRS

[2] = test system: wild-type HCVcc (genotype 2a, JFH-1 strain); type: cell-based, Hepatitis C virus; conditions: 10 μM; compared with DMSO treatment
HIV = conditions: cited from earlier work
ATPlite assay = conditions: human, Huh7.5.1 cells
Huh7.5.1 cells [3] = test system: Huh7.5.1 cells
wild-type HCVcc = type: cell-based, Hepatitis C virus; conditions: primary human hepatocytes; titration, dose-dependent manner
[4] = test system: HCV chimeric genotype viruses (1a, 1b, 2a, 2b, 3a, 4a, 5a, 6a, and 7a); experiment: HCV chimeric genotype virus infection of Huh7.5.1 cells; type: cell-based, Hepatitis C virus; conditions: 10 μM
HCVsc, genotype 2a = type: cell-based, Hepatitis C virus; conditions: 10 μM
[5] = test system: genotype 1b and 2a HCV replicon cell lines; type: cell-based, Hepatitis C virus; conditions: 10 μM
[6] = test system: genotype 1a replicon in Huh7.5.1 cells; type: cell-based, Hepatitis C virus; conditions: 10 μM
HCVpp genotype 1a and 1b = type: cell-based, Hepatitis C virus; conditions: 10 μM; Huh7.5.1 cells
HCV-Luc [7] = experiment: Time-of-addition experiment; type: cell-based, Hepatitis C virus; conditions: for inhibitory kinetics, time-of-addition profile: bafilomycin A1 10 nM, sofosbuvir 10 μM, 2-hour incubations; for effect on viral level, time of addition: treatment during the attachment step
[8] = test system: dengue reporter virus particle; experiment: Dengue reporter virus particle; type: cell-based; conditions: read-out: EC50 in dengue RVP assay
[9] = Cytotoxicity in the dengue RVP assay; type: cell-based
[10] = test system: hepatitis B virus, HCV replicon, herpes simplex virus-1, human cytomegalovirus, vaccinia virus, dengue virus, influenza A (H1N1) virus, respiratory syncytial …; type: cell-based
HCV-Luc [11] = experiment: HCV-Luc assay in 40% human serum; type: cell-based, Hepatitis C virus; conditions: read-out: protein binding adjusted EC50
HCV genotype 1b = type: in vivo, Alb-uPA/SCID mice engrafted with primary human hepatocytes
Huh7.5.1 cells [12] = test system: Huh7.5.1 cells; remark: listed apart in the source
[13] = day 28
[14] = Mouse pharmacokinetics and tissue distribution, single intraperitoneal dose; conditions: for brain levels (in words): (S)-CCZ 50 mg/kg, (S)-nor-CCZ 10 mg/kg, single intraperitoneal dose
[15] = Microsomal stability assay, human microsomes; type: in vitro ADME
[16] = Microsomal stability assay, mouse microsomes; type: in vitro ADME
HCV-Luc [17] = experiment: In vitro combination evaluation; conditions: for CalcuSyn CI value: in combination with (S)-CCZ at or near their EC50 values; for MacSynergy Log volume: in combination with (S)-CCZ, Bliss independence model
[18] = mouse, in vivo, ip, 10 mg/kg
[19] = read-out: HCV-Luc EC50, Huh7.5.1 cells, luciferase signal 48 hours after treatment
[20] = Huh7.5.1 cells, luciferase signal 48 hours after treatment

CN1CCCN(C(c2ccccc2)c2ccc(Cl)cc2)CC1 (stereo not shown) [homochlorcyclizine]
EC50 (HCV-Luc [1]; Hepatitis C virus): ~50 nM | selectivity ratio (HCV-Luc [1]): 318 to 924

CN1CCN(C(c2ccccc2)c2ccc(Cl)cc2)CC1 (racemic) [Racemic CCZ, chlorcyclizine HCl]
Antihistamine activity at 10 nM (H1-histamine receptor): 72.60% | Intracellular and extracellular viral RNA levels [2]: significantly reduced | activity against HIV (HIV): reported activity against HIV | EC50 (HCV-Luc [1]; Hepatitis C virus): ~50 nM | EC50 (HCV-Luc [1]; Hepatitis C virus, Huh-7.5.1, 48 h, read-out: HCV-Luc EC50): 44 ± 11 nM | EC90 (HCV-Luc [1]; Hepatitis C virus, Huh-7.5.1, 48 h): 1400 ± 450 nM | CC50 (ATPlite assay): 49800 ± 17200 nM

CN1CCN([C@H](c2ccccc2)c2ccc(Cl)cc2)CC1 [(R)-CCZ]
Antihistamine activity at 10 nM (H1-histamine receptor): 88.00% | Intracellular and extracellular viral RNA levels [2]: significantly reduced | CC50 (Huh7.5.1 cells [3]): 37500 ± 4150 nM | EC50 (HCV-Luc [1]; [19]): 20 ± 5 nM | EC90 (HCV-Luc [1]; [20]): 1090 ± 370 nM

CN1CCN([C@@H](c2ccccc2)c2ccc(Cl)cc2)CC1 [(S)-CCZ]
Antihistamine activity at 10 nM (H1-histamine receptor): 41.70% | Intracellular and extracellular viral RNA levels [2]: significantly reduced | intracellular HCV RNA level (wild-type HCVcc): inhibited | extracellular HCV RNA levels and infectivity (TCID50/ml) [4]: inhibited | inhibitory activity in the HCVsc assay (HCVsc, genotype 2a): strong inhibitory activity | inhibitory effect on HCV replicon [5]: did not exert a significant inhibitory effect | HCV replication, transient replicon [6]: not inhibited | inhibitory effect on HCVpp entry (HCVpp genotype 1a and 1b): no significant inhibitory effect | inhibition of infection, time of addition (HCV-Luc [7]; added 2 or 3 hours after entry): no significant inhibition | inhibition of infection, time of addition (HCV-Luc [7]; added 1 hour after synchronous entry): Less inhibitory effect | inhibition of infection, time of addition (HCV-Luc [7]; added during viral attachment at 4°C for 2 hours or during the first 2 hours of synchronous entry at 37°C): potent inhibition | EC50 [8]: 1880 nM | CC50 [9]: > 31600 nM | antiviral activity in NIAID antiviral screen [10]: little or no antiviral activity | EC50 (HCV-Luc [11]): 240 nM | decrease of genotype 1b virus titer (HCV genotype 1b; 2 mg/kg daily for 4 weeks): about 1 log | reduction of HCV titers from pretreatment baseline (HCV genotype 1b; 50 and 10 mg/kg daily for 4 weeks, genotype 1b): 2 log | HCV titers during the treatment period (drug resistance) (HCV genotype 1b; genotype 1b and 2a infections): without rebound | CC50 (Huh7.5.1 cells [3]): 33400 ± 2440 nM | cytotoxicity after continuous treatment for 21 days (Huh7.5.1 cells [12]; 10 μM): low cytotoxicity | cytotoxicity after continuous treatment for 21 days (Huh7.5.1 cells [12]; 1.0 and 5.0 μM): no cytotoxicity | liver to plasma ratio ([13]; 2 mg/kg group): 38 | liver to plasma ratio ([13]; 10 mg/kg group): 41 | liver concentration ([13]; (S)-CCZ dose of 2 mg/kg): 0.342 µM | liver concentration ([13]; (S)-CCZ dose of 10 mg/kg): 2.66 µM | EC50 (HCV-Luc [1]; [19]): 24 ± 9 nM | EC90 (HCV-Luc [1]; [20]): 1440 ± 430 nM | ratio of liver to plasma ([14]; 50 mg/kg intraperitoneal, assuming liver density 1.0 g/ml): 29.6 | brain levels (in words) [14]: comparable to liver levels

Clc1ccc(C(c2ccccc2)N2CCNCC2)cc1 (stereo not shown) [nor-CCZ, nor-chlorcyclizine]
half-life [15]: > 1.67 h | T1/2 in mice (microsomes) relative to CCZ [16]: more than fourfold longer | cytotoxicity compared with CCZ (in words) (Huh7.5.1 cells [3]): higher cytotoxicity | anti-HCV activity (in words) (HCV-Luc [1]): comparable to that of CCZ | selectivity ratio (HCV-Luc [1]): 188

CCC[C@H](NC(=O)[C@@H]1[C@H]2CCC[C@H]2CN1C(=O)[C@@H](NC(=O)[C@@H](NC(=O)c1cnccn1)C1CCCCC1)C(C)(C)C)C(=O)C(=O)NC1CC1 [Telaprevir]
CalcuSyn CI value (HCV-Luc [17]): 0.426 ± 0.138 | MacSynergy Log volume (HCV-Luc [17]): +++ (strong synergy (log volume ≥ 9))

O[C@H]1[C@H]2c3cc4c(cc3CN3CCC(=C[C@@H]1O)[C@H]23)OCO4 [Lycorine-HCl, reference compound]
EC50 [8]: 40.6 nM | CC50 [9]: > 31600 nM

CC(C)OC(=O)[C@H](C)N[P@](=O)(OC[C@H]1O[C@@H](n2ccc(=O)[nH]c2=O)[C@](C)(F)[C@@H]1O)Oc1ccccc1 [Sofosbuvir]
inhibitory kinetics, time-of-addition profile (HCV-Luc [7]): inhibited HCVcc infection when added at all the time points except during the attachment stage | effect on viral level, time of addition (HCV-Luc [7]): no effect on viral level | CalcuSyn CI value (HCV-Luc [17]): 0.362 ± 0.075 | MacSynergy Log volume (HCV-Luc [17]): +++ (strong synergy (log volume ≥ 9))

COC(=O)N[C@H](C(=O)N1CCC[C@H]1c1nc(-c2ccc(-c3ccc(-c4c[nH]c([C@@H]5CCCN5C(=O)[C@@H](NC(=O)OC)C(C)C)n4)cc3)cc2)c[nH]1)C(C)C [Daclatasvir]
CalcuSyn CI value (HCV-Luc [17]): 0.427 ± 0.142 | MacSynergy Log volume (HCV-Luc [17]): +++ (strong synergy (log volume ≥ 9))

Clc1ccc(Cn2c(CN3CCCC3)nc3ccccc32)cc1 [clemizole]
anti-HCV activity (in words) (HCV-Luc [1]): much less potent activity

NCCc1c[nH]cn1 [Histamine]
anti-HCV activity (in words) (HCV-Luc [1]): no anti-HCV activity; also recorded: no effect on HCV infection

CN1CCN(C(c2ccccc2)c2ccccc2)CC1 [Cyclizine]
lower activity than CCZ (HCV-Luc [1]; relative to CCZ): 10 fold

OCCOCCN1CCN(C(c2ccccc2)c2ccc(Cl)cc2)CC1 (stereo not shown) [hydroxyzine]
EC50 (HCV-Luc [1]; Hepatitis C virus): ~50 nM | selectivity ratio (HCV-Luc [1]): 318 to 924

CC(C)(C)NC(=O)N[C@H](C(=O)N1C[C@H]2[C@@H]([C@H]1C(=O)NC(CC1CCC1)C(=O)C(N)=O)C2(C)C)C(C)(C)C (stereo partly shown) [Boceprevir]
CalcuSyn CI value (HCV-Luc [17]): 0.691 ± 0.114 | MacSynergy Log volume (HCV-Luc [17]): +++ (strong synergy (log volume ≥ 9))

O=C(O)COCCN1CCN(C(c2ccccc2)c2ccc(Cl)cc2)CC1 (stereo not shown) [Cetirizine]
anti-HCV activity (in words) (HCV-Luc [1]): not active

NC(=O)COCCN1CCN(C(c2ccccc2)c2ccc(Cl)cc2)CC1 (stereo not shown) [cetirizine amide]
EC50 (HCV-Luc [1]; [19]): 103 nM

NC(=O)c1ncn([C@@H]2O[C@H](CO)[C@@H](O)[C@H]2O)n1 [Ribavirin]
CalcuSyn CI value (HCV-Luc [17]): 0.630 ± 0.106 | MacSynergy Log volume (HCV-Luc [17]): +++ (strong synergy (log volume ≥ 9))

Clc1ccc([C@H](c2ccccc2)N2CCNCC2)cc1 [(S)-Nor-CCZ]
Antihistamine activity at 10 nM (H1-histamine receptor): 2.24% | CC50 (Huh7.5.1 cells [3]): 9310 ± 40 nM | T1/2 compared to (S)-CCZ (in words) [18]: longer T1/2 | liver concentration ([13]; (S)-CCZ dose of 2 mg/kg): 3.16 µM | liver concentration ([13]; (S)-CCZ dose of 10 mg/kg): 12.1 µM | EC50 (HCV-Luc [1]; [19]): 34 ± 12 nM | EC90 (HCV-Luc [1]; [20]): 578 ± 99 nM | ratio of average concentration in liver to plasma ([14]; 10 mg/kg intraperitoneal): 60.7 | brain levels (in words) [14]: comparable to liver levels

CO/C1=C\C(C)=C\[C@@H](C)[C@@H](O)[C@@H](C)C/C(C)=C/C=C/[C@H](OC)[C@@H]([C@@H](C)[C@@H](O)[C@H](C)[C@@]2(O)C[C@@H](O)[C@H](C)[C@@H](C(C)C)O2)OC1=O [Bafilomycin A1]
inhibitory kinetics, time-of-addition profile (HCV-Luc [7]): only showed significant inhibitory effect when added during the first 2 hours of synchronous entry | effect on viral level, time of addition (HCV-Luc [7]): no effect on viral level

IFN-α
CalcuSyn CI value (HCV-Luc [17]): 0.609 ± 0.128 | MacSynergy Log volume (HCV-Luc [17]): +++ (strong synergy (log volume ≥ 9))
